The text below walks through data of ChEMBL document CHEMBL1649082, “Trends in kinase selectivity: insights for target class-focused library screening” (J Med Chem, 2011).

Design in all cases: scale not given: the % may be the effect or the level left
The target of experiment [1] is T1, Inhibitor of nuclear factor kappa-B kinase subunit alpha (Homo sapiens) (UniProt O15111).
T1 sequence (whole entry): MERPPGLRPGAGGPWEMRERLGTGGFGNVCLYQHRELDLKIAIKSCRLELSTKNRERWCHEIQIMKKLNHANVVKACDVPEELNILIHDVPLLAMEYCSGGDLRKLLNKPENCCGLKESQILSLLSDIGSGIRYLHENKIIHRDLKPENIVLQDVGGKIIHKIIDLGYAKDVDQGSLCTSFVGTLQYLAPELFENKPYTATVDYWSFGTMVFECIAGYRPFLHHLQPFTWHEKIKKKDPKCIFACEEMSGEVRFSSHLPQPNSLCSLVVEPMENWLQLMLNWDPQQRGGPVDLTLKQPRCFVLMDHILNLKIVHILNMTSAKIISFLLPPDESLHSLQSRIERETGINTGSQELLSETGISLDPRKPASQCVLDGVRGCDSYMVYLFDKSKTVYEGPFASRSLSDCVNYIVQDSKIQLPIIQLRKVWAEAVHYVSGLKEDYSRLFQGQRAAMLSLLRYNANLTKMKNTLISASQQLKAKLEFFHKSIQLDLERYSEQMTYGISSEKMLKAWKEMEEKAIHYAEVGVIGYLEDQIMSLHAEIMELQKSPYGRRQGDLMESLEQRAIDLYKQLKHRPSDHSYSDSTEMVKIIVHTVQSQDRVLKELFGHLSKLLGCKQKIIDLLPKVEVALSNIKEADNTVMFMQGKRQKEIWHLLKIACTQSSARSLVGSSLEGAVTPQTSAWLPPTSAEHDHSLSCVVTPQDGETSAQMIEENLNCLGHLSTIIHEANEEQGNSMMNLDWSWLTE
The experiment in a line: Inhibition of IKKalpha assessed as activity at 1 uM relative to control.

The target of experiment [2] is Cyclin-dependent kinase 7 (Homo sapiens) (UniProt P50613). The experiment in a line: Inhibition of CDK7 assessed as activity at 1 uM relative to control.
Chain of Cyclin-dependent kinase 7 (Homo sapiens) (P50613 whole entry, canonical isoform): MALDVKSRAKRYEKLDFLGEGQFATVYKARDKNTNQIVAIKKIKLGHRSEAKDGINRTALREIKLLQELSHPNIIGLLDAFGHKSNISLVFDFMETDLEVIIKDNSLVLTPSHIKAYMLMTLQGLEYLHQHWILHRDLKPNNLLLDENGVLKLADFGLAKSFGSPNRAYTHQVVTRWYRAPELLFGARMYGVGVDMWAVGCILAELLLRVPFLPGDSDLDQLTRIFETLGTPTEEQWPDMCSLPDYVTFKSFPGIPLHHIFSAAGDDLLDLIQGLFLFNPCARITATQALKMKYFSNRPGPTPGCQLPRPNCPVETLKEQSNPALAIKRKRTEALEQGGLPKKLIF
Experiment [3] is described as follows: Inhibition of CDC2L2 isoform 1 assessed as activity at 1 uM relative to control.
Experiment [4] is described as follows: Inhibition of CDC2L1 isoform 4 assessed as activity at 1 uM relative to control.

The structures appear in SMILES notation.

For `Cc1cccc(-c2cc3nc(NCCN)c4ncc(C)n4c3s2)c1`, the Activity worked out at 15% in experiment [1], 58% in experiment [2], 68% in experiment [3] and 42% in experiment [4].

Regarding `Cc1cnc2c(NCCN)nc3cc(-c4cccc(CO)c4)sc3n12`, the Activity in experiment [1] was determined as 4.6%; in experiment [2] it was 0.5%; in experiment [3], 6.3%; in experiment [4], 2.1%.
